Laboratory results from patent publication US10046001B2, “Compositions and methods for reducing intraocular pressure” (UNIVERSITY OF MIAMI, priority 2013, dated 2018).

Legend:
[1] = tested on: trabecular meshwork (TM) primary cells; experiment: mobility and cell shape changes of primary TM cells exposed to lipids (time-lapse imaging); format: cell-based, human; conditions: for mobility and cell shape changes for trabecular meshwork (TM) primary cells due to exposure to lipids: 10 pmoles of lipid; for dynamics of filopodia formation: exposure to lipids vs vehicle
Description: FIGS. 2A and 2B show representative images of the effect of lipid on trabecular meshwork primary cells. The time lapsed images of cell at indicated time interval. A. The control TM cells were subjected to vehicle (5% DMSO) in phosphate buffered saline. […] A protrusion of filopodia in a cell is indicated by thick arrow head. At 2 minutes after addition of vehicle to 16 minutes, the protrusion remains unchanged. B. TM cells treated with 10 pmoles of lipid. Most cells have protrusions with only a few cells without them. The filopodia in lipid treated cells are dynamic, they undergo dynamic retraction starting at 1 or 2 minutes after addition of lipid in the serum free media, indicated by arrows. At 16 minutes filopodia are largely retracted.
Modulation of cell motility and shape. Compared to controls (vehicle-10% DMSO only treated) shape of primary TM cells (FIG. 2A), exposure to lipids changed the shape of cells promoting filopodia and motility (FIG. 2B). All these lipids promote contraction of filopodia (FIG. 2B, arrows) and well as expansion. These images were derived from time lapsed video imaging of primary TM cells and summary data from several donor derived cells. The exposure to lipids render the cells more dynamic with respect to filopodia formation and their dynamic expansion-contraction (Summarized in Table 1 (FIG. 11)). The motility and filopodia formation is affected by a variety of intrinsic and extrinsic factors such as age of the donors from where cell have been derived, cell density, composition of the medium, environmental temperature and incubation gas composition. The age of the donor and cell density are the most prominent factors.
TM cell culture experiments: Primary human TM cells were cultured from cadaveric corneo-scleral sections. The cells were isolated through a blunt dissection of the area containing and adjacent to the canal of Schlemm, followed by a 2 hour digestion in DPBS (cat #21-030-CV, Mediatech Inc, Manassas, Va.) suspension of 20% 0.01 μg/μL collagenase-A (cat #LS004194, Worthington, Lakewood N.J.). The blunt dissection and the proteolytic treatment were performed inside a 12 well culture plate (cat #665-180 Greiner Bio-One, Neuburg, Germany). Culture media containing [DMEM 1× (cat #10-017-CM, Mediatech Inc), 10% heat inactivated FBS (cat #35-016-CV, Mediatech), 0.5% 1.7 mM L-Glutamine (cat #G6392, Sigma-Aldrich), 1% Antibiotic-Antimycotic Solution (cat #30-004-CL, Mediatech)] was added after 2 hours to terminate digestion. A sterile microscopy slide (cat #56700-194, VMR) was placed on top of the tissue fragment to ensure bottom-contact and immobility inside the media well. The sections were cultured at 37° C. in 5% CO2 inside a cell culture incubator. Culture was washed with 1× DPBS 7 days later to remove tissue debris; media change occurred every 3-4 days. Thus obtained cells were trypsin-treated (cat #25-050-C1, Mediatech) and accordingly distributed the day before the transfection complexes were created using the ratio of 0.4 μg/uL of respective vector DNA to the transfection agent (Lipofectamine 2000, cat #11668-019, Invitrogen), prepared accordingly to the manufacturer's instructions Following addition to respective wells, the transfection reactions were allowed to take place over a 2.5 hour span, after which they were terminated through the addition of cell culture media. Cell assays and immunohistochemical analysis were performed at or within a 24 hour time mark in order to observe and track the effects of vector expression on morphological changes. Time-lapse microscopy was performed using cells grown on glass bottom chamber slides (cat #154534, Lab-Tek, Thermo Fisher Scientific Inc., Rochester N.Y.) and Zeiss AxioVert 200M, for the duration of 20 hours, with a snapshot every 15 minutes, starting at 24 hours post-transfection. Immunohistochemical analysis was performed on cells fixed with 4% PFA (cat #19943, USB Corp, Cleveland, Ohio) at time intervals of 0, 24, and 29 hours post-transfection. […]

[2] = tested on: primary TM cells embedded in collagen gel; experiment: collagen gel embedded expansion and/or contraction assay; format: cell-based, human; conditions: 10 pmole lipid, collagen column length at 24 hours
Description: About 10,000 primary TM cells were placed in a capillary tube with rat collagen without (control) or after treatment with 10 pmole of indicated lipid. The change in collagen column length was measured at the end of 24 hours. Mean and standard deviation from three independent experiments are presented. As shown by yellow/gray zones, the expansions were categorized into four zones (2, 3 and 4 are identified), 1=[…]; 2=1.0 to 1.4 mm; 3=>1.4 mm but <2.0 mm; 4=2.0 and >2.0 mm.
Properties of cell ensembles in embedded matrix and assembled layer of cells on filter membranes. Gel embedded primary TM cells in collagen matrix in capillary tubes were prepared following established protocols (Ilagan, R. et al. Biotechniques. 2010; 48: 153-5), and their ability within the first 24 hours for expansion or contraction of gels (control) or the cells which were subjected to treatment with lipids for 1 hour in serum free medium prior to gel embedding were determined. Lipids that modulate cell expansion in matrix embedded assay systems (FIG. 3) were found. […] The extent of expansion was divided into four zones 1, 2, 3, and 4 (FIG. 3). The higher the number, the greater is the expansion.
Collagen gel expansion and/or contraction assay: Hydro-gel solution was prepared using 10× MEM (cat #11430, Invitrogen), Sodium Bicarbonate (cat #55761 Sigma-Aldrich), L-Glutamine (Sigma-Aldrich), HEPES (cat #15630, Invitrogen). The following solution was aliquoted in separate tubes for each transfection type. Transfection complexes were prepared in individual tubes containing a mixture of the transfection agent (Lipofectamine 2000, Invitrogen) and desired DNA vectors in a ratio of 0.4 ug/uL, following the manufacturer's preparation guidelines. Trabecular meshwork cells were obtained from a confluent layer of trypsin-treated 25 cm^2 cell culture flask (cat #353109, Becton Dickinson, Franklin Lakes, N.J.) sedimented for 5 minutes at 800 RPM. Cell pellet was then re-suspended in serum free DMEM 1×, (Mediatech) media, thoroughly mixed and finally, equally aliquoted into each respective transfection-complex containing vessel. The reaction was allowed to occur for 45 minutes, after which it was terminated through addition of cell culture media and rat tail collagen (cat #354249, BD, San Jose, Calif.) to initiate gel polymerization. The suspension was gently mixed by aspiration and aspirated into 1 mL single use needle syringe and injected into a borosilicate glass capillary (O.D −1.0 mm, IN.D −0.75 mm) (cat #TW100-6, WPI) to approximately half of its volume. A digital picture snapshot was taken of all capillaries prepared against a blank background with a millimeter scale, repeated at 24 and 48 hours. The hydro-gel containing capillaries were incubated inside a moisture chamber to prevent dehydration in a cell line incubator at 37° C. and 5% CO2. Photographs obtained were analyzed using ImageJ (v.1.43u) measuring between chosen points on the opposite ends of the gel. Amassed length data was statistically analyzed using Microsoft Excel (XP).

| Compound | mobility and cell shape changes for trabecular meshwork (TM) primary cells due to exposure to lipids [1] | gel expansion/contraction of cells in artificial embedment [2] | dynamics of filopodia formation [1] |
| --- | --- | --- | --- |
| CCCCCCCCCCCCCC[C@@H](O)[C@@H](N)COP(=O)(O)O [C17 Sphinganine-1-phosphate] | showed an effect | showed an effect |  |
| CCCCCCCC/C=C\CCCCCCCC(=O)N[C@@H](CO)[C@H](O)CCCCCCCCCCCCCCC [Cer(d18:0/18:1(9Z))] | showed an effect | showed an effect |  |
| CCCCCCCC/C=C\CCCCCCCCCCCCCCCC(=O)N[C@@H](CO)[C@H](O)/C=C/CCCCCCCCCCCCC [Cer(d18:1/26:1(17Z))] | showed an effect | showed an effect |  |
| CCCC/C=C\CCCCCCCC(=O)O[C@H](COC(=O)CCCCCCCCCCC)COP(=O)([O-])OCC[N+](C)(C)C [PC(12:0/14:1(9Z))] | lack of any effect | lack of any effect | exception |
| CCCCCCCCCCCCC(=O)OC[C@H](COP(=O)([O-])OCC[N+](C)(C)C)OC(=O)CCCCCCCCCCCC [PC(13:0/13:0), 1,2-ditridecanoyl-sn-glycero-3-phosphocholine, reference compound] | lack of any effect | lack of any effect | exception |
| CCCCCCCCCCCCCCCCCC(=O)OC[C@H](COP(=O)(O)OCCN)OC(=O)CCCCCCCCCCCCCCCCC [PE(18:0/18:0)] | showed an effect | showed an effect |  |
| CCCC/C=C\C/C=C\CCCCCCCC(=O)O[C@H](COC(=O)CCCCCCCCCCC)COP(=O)(O)OC1C(O)C(O)C(O)[C@@H](O)C1O (some centres unmarked) [PI(12:0/17:2)9Z,12Z))] | showed an effect | showed an effect |  |
| CCCCC/C=C\C/C=C\C/C=C\C/C=C\CCCC(=O)O[C@H](COC(=O)CCCCCCCCCCCCCCCCC)COP(=O)(O)OC1[C@H](O)[C@H](O)C(O)[C@H](O)[C@H]1O (some centres unmarked) [PI(18:0/20:4)5Z,8Z,11Z,14Z))] | showed an effect | showed an effect |  |
| CCCCCCCCCCCCCC(=O)OC[C@@H](O)COP(=O)(O)OC[C@H](N)C(=O)O [PS(14:0/0:0)] | showed an effect | showed an effect |  |
| CCCCCCCCCCCCCCCCCC(=O)OC[C@@H](O)COP(=O)(O)OC[C@H](N)C(=O)O [PS(18:0/0:0)] | showed an effect | showed an effect |  |
| CCCCCCCCCCC/C=C/[C@@H](O)[C@H](COP(=O)([O-])OCC[N+](C)(C)C)NC(=O)CCCCCCCCCCCCCCCCCCCCCCCC [SM(d16:1/25:0)] | showed an effect | showed an effect |  |
| CCCCCCCCCCCCCCC[C@@H](O)[C@@H](N)CO [Sphinganine] | showed an effect | showed an effect |  |
